Experimental data taken from patent US20260344670A1, “BIXLOZONE MIXTURES WITH PETHOXAMID” (FMC CORPORATION, priority 2022, published 2026).

What was measured:
Type in all cases: in vivo
[1] = test system: Polygonum aviculare (POLAV); experiment: pre-emergence control of POLAV in corn (Colby synergy); details: bixlozone 375, pethoxamid 1200, mixtures 375 + 1200 g/ha
Text: (§1) [formula] • where ppm=milligrams of active ingredient (=a.i.) per liter of spray mixture X=% action by component A using p ppm of active ingredient Y=% action by component B using q ppm of active ingredient. If the ratio R defined as the action actually observed (O) divided by the expected action (E) is >1 then the action of the combination is superadditive, i.e. there is a synergistic effect. For a more detailed description of the Colby formula, see Colby, S. R. “Calculating Synergistic and Antagonistic Responses of Herbicide Combination”, Weeds, Vol. 15, pages 20-22; 1967; see also Limpel et al., Proc. NEWCC 16:48-53 (1962).
(§2) The herbicidal compounds bixlozone and pethoxamid were applied in a variety of forms and at a variety of amounts, application rates, and normalities. Efficacy of the herbicidal compositions was evaluated with reference to a scale of 0% to 100% in comparison with untreated control plots. 0 means no damage to the harmful plants and 100 means complete destruction of the harmful plants. Plants per square meter is indicated by “pl/m^2”, and grams per hectare is indicated by “g/ha”. […]

[2] = test system: Convolvulus arvensis (CONAR); experiment: pre-emergence control of CONAR in corn (efficacy, Colby synergy); details: bixlozone 375, pethoxamid 300, mixtures 375 + 300 g/ha
Text: as §1
(§3) As used herein, rating timings correspond to the following: A1=weed assessment at BBCH 11-12; A2=4 weeks after the application; A3=when ZEAMX crop reaches BBCH 18 (row closure); and A4=BBCH 51-59 of the ZEAMX crop.
as §2

[3] = test system: Digitaria sanguinalis (DIGSA); experiment: pre-emergence control of DIGSA in corn (efficacy, Colby synergy); details: bixlozone 375, pethoxamid 1200, mixtures 375 + 1200 g/ha
Text: as §1, §3, §2

[4] = test system: Xanthium strumarium (XANST); experiment: pre-emergence control of XANST in corn (efficacy, Colby synergy); details: bixlozone 375, pethoxamid 300, mixtures 375 + 300 g/ha
Text: as §1, §3, §2

[5] = test system: Matricaria chamomilla (MATCH); experiment: pre-emergence control of MATCH in corn (efficacy, Colby synergy)
Text: as §1, §3
(§4) The herbicidal compounds bixlozone and pethoxamid were applied in a variety of forms and at a variety of amounts, application rates, and normalities. Efficacy of the herbicidal compositions was evaluated with reference to a scale of 0% to 100% in comparison with untreated control plots. 0 means no damage to the harmful plants and 100 means complete destruction of the harmful plants. Plants per square meter is indicated by “pl/m^2”, and grams per hectare is indicated by “g/ha”. The acronym “EC” means emulsifiable concentrate (a liquid, homogenous formulation to be applied as an emulsion after dilution with water); “SC” means suspension concentrate (a stable suspension of active ingredient(s) with water as the fluid); “ZC” refers to a mixed formulation of CS and SC (a stable suspension of capsules and active ingredient(s) in a fluid, normally intended for dilution with water before use).
(§5) Various forms, compositions, and mixtures of bixlozone and pethoxamid were applied to corn before emergence. […] There was equivalent efficacy for fixed rate of bixlozone combined with pethoxamid: 1200 or 900 g/ha. Efficacy was reduced when bixlozone rate decreased from 250 to 150 g/ha. […]

Solanum nigrum (SOLNI) = experiment: pre-emergence control of SOLNI in corn (efficacy, Colby synergy)
Text: as §1, §3, §4, §5

[6] = test system: Tripleurospermum inodorum (MATIN); experiment: pre-emergence control of MATIN in corn (Colby synergy)
Text: as §1, §2

FUMOF = experiment: pre-emergence control of FUMOF in corn (efficacy, Colby synergy); details: bixlozone 375, pethoxamid 800, tank mix 375 + 800, premix 375 + 775 g/ha
Text: (§6) Table 10. Synergy data of various forms and mixtures of bixlozone and pethoxamid after pre-emergence application on corn at the crop row closure stage (BBCH 18). […] The notations in parentheses show the forms and amounts (in g/ha) of applied bixlozone and pethoxamid, respectively. Where “tank” is noted, the mix is a tank mix. Where “premix” is noted, the mix is a premix. Where there is no notation, the value shown is the Colby calculation for the expected value from separate mixtures.
(§7) Various forms, compositions, and mixtures of bixlozone and pethoxamid were applied to corn before emergence. […] Mixtures of bixlozone with 800 g/ha pethoxamid improved weed spectrum on a range of broad leaf weeds (e.g., CHEAL and ABUTH) and grasses (e.g., ECHCG, DIGSA, and SETVI). Combinations of bixlozone and pethoxamid in pre-emergence applications were very safe with no clear pethoxamid rate effect.
(§8) Table 12. Efficacies of various forms and mixtures of bixlozone and pethoxamid after pre-emergence application on corn. Weeds were present at ≥5 pl/m^2. Concentrations are shown in parentheses in g/ha.

Setaria viridis (SETVI) = experiment: pre-emergence control of SETVI in corn (efficacy, Colby synergy)
Text: as §1, §3, §4, §5

[7] = test system: Sorghum halepense (SORHA); experiment: pre-emergence control of SORHA in corn (efficacy, Colby synergy)
Text: as §1, §3, §2

CHEPO = experiment: pre-emergence control of CHEPO in corn (efficacy, Colby synergy); details: bixlozone 375, pethoxamid 800, tank mix 375 + 800, premix 375 + 775 g/ha
Text: as §6, §7, §8

ANGAR = experiment: pre-emergence control of ANGAR in corn (efficacy, Colby synergy); details: bixlozone 375, pethoxamid 800, tank mix 375 + 800, premix 375 + 775 g/ha
Text: as §6, §7, §8

[8] = test system: Capsella bursa-pastoris (CAPBP); experiment: pre-emergence control of CAPBP in corn (efficacy, Colby synergy); details: bixlozone 375, pethoxamid 800, tank mix 375 + 800, premix 375 + 775 g/ha
Text: as §1, §3, §2

[9] = test system: Persicaria lapathifolia (POLLA); experiment: pre-emergence control of POLLA in corn (efficacy, Colby synergy)
Text: as §1, §3, §4, §5

[10] = test system: Fallopia convolvulus (POLCO); experiment: pre-emergence control of POLCO in corn (efficacy, Colby synergy)
Text: as §1, §3, §2

[11] = test system: Potentilla tridentate (PTLTR); experiment: pre-emergence control of PTLTR in corn (Colby synergy); details: bixlozone 375, pethoxamid 1200, mixtures 375 + 1200 g/ha
Text: as §1, §2

DAUCA = experiment: pre-emergence control of DAUCA in corn (efficacy, Colby synergy); details: bixlozone 375, pethoxamid 300, mixtures 375 + 300 g/ha
Text: Table 11. Synergy data of various forms and mixtures of bixlozone and pethoxamid after pre-emergence application on corn at the crop row closure stage (BBCH 18). The notations in parentheses show the forms and amounts (in g/ha) of applied bixlozone and pethoxamid, respectively. Where “tank” is noted, the mix is a tank mix. Where “premix” is noted, the mix is a premix. Where there is no notation, the value shown is the Colby calculation for the expected value from separate mixtures.
Various forms, compositions, and mixtures of bixlozone and pethoxamid were applied to corn before emergence. […] Mixtures of bixlozone with 300 g/ha pethoxamid improved weed spectrum on a range of broad leaf weeds (e.g., SOLNI and ABUTH). Combinations of bixlozone and pethoxamid in pre-emergence applications were very safe with no clear pethoxamid rate effect.
Table 13. Efficacies of various forms and mixtures of bixlozone and pethoxamid after pre-emergence application on corn. Weeds were present at ≥5 pl/m^2. Concentrations are shown in parentheses in g/ha.

GALAP = experiment: pre-emergence control of GALAP in corn (efficacy, Colby synergy)
Text: as §6, §7, §8
Various forms, compositions, and mixtures of bixlozone and pethoxamid were applied to corn before emergence. […]

[12] = test system: Echinochloa crus-galli (ECHCG); experiment: pre-emergence control of ECHCG in corn (efficacy, Colby synergy)
Text: as §1, §3, §2

Lamium purpureum (LAMPU) = experiment: pre-emergence control of LAMPU in corn (efficacy, Colby synergy); details: bixlozone 375, pethoxamid 300, mixtures 375 + 300 g/ha
Text: as §1, §3, §2

[13] = bixlozone 375, pethoxamid 300, mixtures 375 + 300 g/ha
[14] = bixlozone 375, pethoxamid 800, tank mix 375 + 800, premix 375 + 775 g/ha
[15] = bixlozone 375, pethoxamid 1200, mixtures 375 + 1200 g/ha

CCOCCN(C(=O)CCl)C(=C(C)C)c1ccccc1 [pethoxamid] showed an Efficacy [1] of 77.5, an Efficacy [2] of 39.6 and an Efficacy [3] of 82. For the same molecule, the Efficacy [4] was 35, the Efficacy [5, 13] was 90 and the Efficacy [5, 14] was 100. The Efficacy [5, 15] was 77.5, the Efficacy (Solanum nigrum (SOLNI); [13]) was 28.8 and the Efficacy (Solanum nigrum (SOLNI); [14]) was 52.5. For the same molecule, the Efficacy (Solanum nigrum (SOLNI); [15]) was 76.5, the Efficacy [6, 13] was 50 and the Efficacy [6, 15] was 100. For the same molecule, the Efficacy (FUMOF) was 12.5, the Efficacy (Setaria viridis (SETVI); [13]) was 30 and the Efficacy (Setaria viridis (SETVI); [14]) was 81. For the same molecule, the Efficacy (Setaria viridis (SETVI); [15]) was 52.1, the Efficacy [7, 14] was 80 and the Efficacy [7, 15] was 27.5. It also gave an Efficacy (CHEPO) of 30, an Efficacy (ANGAR) of 100 and an Efficacy [8] of 99.3. For the same molecule, the Efficacy [9, 13] was 42.2, the Efficacy [9, 14] was 49.3 and the Efficacy [9, 15] was 87.8. For the same molecule, the Efficacy [10, 14] was 1.3, the Efficacy [10, 15] was 12.1 and the Efficacy [11] was 0. For the same molecule, the Efficacy (DAUCA) was 83, the Efficacy (GALAP; [13]) was 7.5 and the Efficacy (GALAP; [14]) was 7.5. The Efficacy [12, 13] was 48.4, the Efficacy [12, 15] was 85.5 and the Efficacy (Lamium purpureum (LAMPU)) was 62.5.
